What was measured:
[1] = test system: Candida albicans; assay: Antimicrobial screening by agar dilution, Candida albicans; format: cell-based; conditions: after 10, 20, 40 and 60 minutes at all dilutions 1:100, 1:200, 1:400, 1:800
Experimental: (§1) The antibacterial properties of the synthesized compound 2-benzo-[3,4-b]quinolino-[b,g]indeno[1′,2′:3,4]fluoreno-[1,2-d]oxonine-24-chloro-5,11,16,21-tetraone were studied by the method of agar dilution. Test solutions of each compound was prepared in concentration of 1% using dimethylformamide as a solvent then they are diluted in physiological solution to obtain the final experimental dilutions 1:100, 1:200, 1:400, 1:800. The effect of these substances are compared with furacillin in a controllable study. The testing microbes used were gram positive bacteria Staphylococcus aureus, gram negative bacteria Pseudomonas aeruginosa and Escherichia coli and Candida albicans fungus. The experiments used for this survey were meat-pentonlu agar (EPA) for cultivation of bacteria and Saburo environment for the fungus. Each experiment used 1 mL of test solution on each plate […]. Two drops of emulsified with microbes feel were added. All experimental samples were taken from the agar after 10, 20, 40, 60 minutes in the environment on the basis of Patrk planted. The bacteria were cultivated at a temperature of 37° C. for 1 day and the mushroom was kept in a thermostat for […] at a temperature of 28° C. Then results were checked.

[2] = test system: Pseudomonas aeruginosa; assay: Antimicrobial screening by agar dilution, Pseudomonas aeruginosa; format: cell-based; conditions: after 10, 20, 40 and 60 minutes at all dilutions 1:100, 1:200, 1:400, 1:800
Experimental: as §1

[3] = test system: Staphylococcus aureus; assay: Antimicrobial screening by agar dilution, Staphylococcus aureus; format: cell-based; conditions: after 10, 20, 40 and 60 minutes at all dilutions 1:100, 1:200, 1:400, 1:800
Experimental: as §1

[4] = test system: Escherichia coli; assay: Antimicrobial screening by agar dilution, Escherichia coli; format: cell-based; conditions: after 10, 20, 40 and 60 minutes at all dilutions 1:100, 1:200, 1:400, 1:800
Experimental: as §1

melting point: 241 °C
Structure (SMILES): O=C1Oc2nc3ccc(Cl)cc3cc2-c2c(c3c4ccccc4c(=O)c3c3c2c(=O)c2ccccc23)C(=O)c2ccccc21 [2-benzo-[3,4-b]quinolino-[b,g]indeno[1′,2′:3,4]fluoreno-[1,2-d]oxonine-24-chloro-5,11,16,21-tetraone]
inhibition activity, Candida albicans [1]: highest inhibition activity
inhibition activity, Pseudomonas aeruginosa [2]: highest inhibition activity
inhibition activity, Staphylococcus aureus [3]: highest inhibition activity
inhibition activity, Escherichia coli [4]: highest inhibition activity
